Target: T1, Microsomal triglyceride transfer protein (MTP) from human small intestine microsome (Homo sapiens, UniProt P55157)
T1 construct: Human small intestine microsome was dialyzed against 10 mM phosphate buffer; tissue Tissue Transforming Technologies, Inc; host or cells: human small intestine microsome
Test: Inhibition test of interliposomal triglyceride (TG) transfer activity by MTP
Assay type: biochemical
Details: purified MTP from human small intestine microsome, 37° C., 1.5 hours
Description: Microsomal triglyceride transfer protein (MTP) from human small intestine microsome (manufactured by Tissue Transforming Technologies, Inc.) was purified in such a way described below. Human small intestine microsome was dialyzed against 10 mM phosphate buffer (300 mL, pH 6.8) twice for about 2 hours and once for further not less than 12 hours, at about 4° C. After dialysis, the mixture was centrifuged at 4° C. and 15,000×g for 5 minutes and then the supernatant was recovered. The previously recovered supernatant was purified by column chromatography on diethylaminoethyl (DEAE) Sepharose using FPLC (Fast Performance Liquid Chromatography) system, and the purified MTP was used for the test as described below.
Small unilamellar-vesicle (SUV) liposome (hereinafter described as donor, containing 0.25% (mol/mol) triolein and 5% (mol/mol) cardiolipin) constituted by triolein labeled with ^14C and non-labeled SUV liposome (hereinafter described as acceptor, containing […] triolein) were prepared in such a way described below.
Firstly, in order to prepare the donor, there were volatilized under a stream of nitrogen gas a phosphatidylcholine solution containing phosphatidylcholine labeled with ^3H, a cardiolipin solution, and a triolein solution containing triolein labeled with ^14C (each solution had been already dissolved in an appropriate organic solvent), or in order to prepare the acceptor, there were volatilized under nitrogen flow a phosphatidylcholine solution containing phosphatidylcholine labeled with ^3H and a cardiolipin solution (each solution had been already dissolved in an appropriate organic solvent). An appropriate amount of a reaction buffer (15 mM Tris-HCl buffer containing 1 mM EDTA.Na2, 40 mM NaCl, and 0.5% (w/v) bovine serum albumin, pH 7.4) was added thereto to be emulsified. The emulsions were treated with ultrasonication under ice-cooling and centrifuged at 4° C. and 159,000×g for 2 hours. Each of the resulting supernatant was used for donor or acceptor.
Each radioactivity in the acceptor and the donor was measured by liquid scintillation counter, and a mixed solution of the acceptor and the donor was prepared with a reaction buffer so as to be a donor-derived radioactivity of 16,000 dpm/400 μL and a acceptor-derived radioactivity of 4,000 dpm/[…]. 400 μL of the mixed solution of the donor and the acceptor, 45 μL of the reaction buffer, 50 μL of MTP (20 μg/mL), and 5 μL of a sample dissolved in DMSO (dimethyl sulfoxide) or 5 μL of DMSO was mixed (total amount: 500 μL). The mixture was incubated at 37° C. for 1.5 hours. After completion of the incubation, 1.25 mL of a suspension of DEAE cellulose (66.7% (v/v)) in 15 mM Tris-HCl buffer (pH 7.4) containing 1 mM EDTA.Na2 was added to the above solution. The mixture was centrifuged to separate the donor (adsorbed on the DEAE cellulose to precipitate) and the acceptor (the supernatant). The radioactivity in the acceptor was measured by liquid scintillation counter. The value obtained by subtracting the radioactivity in a blank group from the radioactivity in the acceptor of a DMSO group was determined as MTP-mediated TG transfer activity, and it was compared with the value obtained by subtracting the radioactivity in the blank group from the radioactivity in a sample group. Here, the blank was prepared by adding 10 mM phosphate buffer (pH 6.8) containing 250 mM NaCl in place of MTP. Inhibition rate (%) was calculated from values obtained according to the following equation. Inhibition rate(%)=(1 minus((radioactivity of sample group minus radioactivity of blank group)/(radioactivity of DMSO group minus radioactivity of blank group)))×100.
50% Inhibition rate (IC50) was determined on the basis of the above equation.

T1 sequence (P55157 19-894): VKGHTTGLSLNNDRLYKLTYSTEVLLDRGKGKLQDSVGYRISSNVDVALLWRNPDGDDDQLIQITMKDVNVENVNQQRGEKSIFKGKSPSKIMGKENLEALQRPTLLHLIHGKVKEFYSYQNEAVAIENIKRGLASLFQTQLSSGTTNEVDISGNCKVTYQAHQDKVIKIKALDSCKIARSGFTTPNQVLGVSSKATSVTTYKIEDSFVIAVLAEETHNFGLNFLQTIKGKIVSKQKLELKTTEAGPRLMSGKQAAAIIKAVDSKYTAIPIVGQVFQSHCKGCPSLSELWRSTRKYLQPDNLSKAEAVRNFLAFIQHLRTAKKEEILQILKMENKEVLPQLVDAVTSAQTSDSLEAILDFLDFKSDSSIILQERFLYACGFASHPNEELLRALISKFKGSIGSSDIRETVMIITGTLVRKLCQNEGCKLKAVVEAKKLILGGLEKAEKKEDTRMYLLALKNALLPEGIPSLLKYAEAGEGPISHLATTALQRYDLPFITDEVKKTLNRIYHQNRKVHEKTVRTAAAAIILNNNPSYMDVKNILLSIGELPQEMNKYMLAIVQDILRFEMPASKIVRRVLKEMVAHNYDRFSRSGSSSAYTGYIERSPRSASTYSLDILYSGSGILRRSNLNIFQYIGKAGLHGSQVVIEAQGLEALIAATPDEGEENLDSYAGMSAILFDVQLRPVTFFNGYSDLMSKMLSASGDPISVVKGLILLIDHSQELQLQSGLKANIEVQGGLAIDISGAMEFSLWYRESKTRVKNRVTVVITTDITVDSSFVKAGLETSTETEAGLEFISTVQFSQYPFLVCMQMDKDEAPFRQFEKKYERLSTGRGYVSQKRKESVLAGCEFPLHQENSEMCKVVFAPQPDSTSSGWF
T1 sequence (P07237 18-508 partner): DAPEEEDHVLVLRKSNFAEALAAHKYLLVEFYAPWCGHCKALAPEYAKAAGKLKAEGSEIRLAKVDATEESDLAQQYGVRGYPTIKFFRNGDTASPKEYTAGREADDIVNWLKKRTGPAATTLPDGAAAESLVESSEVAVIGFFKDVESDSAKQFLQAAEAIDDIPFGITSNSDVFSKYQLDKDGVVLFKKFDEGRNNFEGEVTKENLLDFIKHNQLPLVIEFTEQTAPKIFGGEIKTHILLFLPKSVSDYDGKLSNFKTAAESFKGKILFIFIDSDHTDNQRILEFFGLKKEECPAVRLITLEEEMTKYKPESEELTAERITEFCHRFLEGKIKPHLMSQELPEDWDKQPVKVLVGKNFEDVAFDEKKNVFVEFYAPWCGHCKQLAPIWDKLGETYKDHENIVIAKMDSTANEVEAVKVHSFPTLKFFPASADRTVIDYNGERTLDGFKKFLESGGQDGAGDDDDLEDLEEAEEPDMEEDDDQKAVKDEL

| Structure (SMILES) | IC50 [nM] |
| --- | --- |
| CN(C)C(=O)c1cc(CCCC(=O)Oc2ccc(-c3nnn(C)n3)cc2)ccc1NC(=O)c1ccccc1-c1ccc(C(F)(F)F)cc1 [Compound 1-95, 4-(3-dimethylcarbamoyl-4-{(4′-trifluoromethylbiphenyl-2-carbonyl)amino}phenyl)butyric acid 4-(2-methyl-2H-tetrazol-5-yl)phenyl ester] | < 10 |
| CN(C)C(=O)c1cc(CCCC(=O)Oc2ccc(C(=O)OCc3ccc(C(=O)OC(C)(C)C)cc3)cc2)ccc1NC(=O)c1ccccc1-c1ccc(C(F)(F)F)cc1 [Compound 1-103, 4-[4-(3-dimethylcarbamoyl-4-{(4′-trifluoromethylbiphenyl-2-carbonyl)amino}phenyl)butyryloxy]benzoic acid 4-(t-butoxycarbonyl)benzyl ester] | < 10 |
| CN(C)C(=O)c1cc(CCCC(=O)Oc2ccc(C(=O)OCc3cccs3)cc2)ccc1NC(=O)c1ccccc1-c1ccc(C(F)(F)F)cc1 [Compound 1-98, 4-[4-(3-dimethylcarbamoyl-4-{(4′-trifluoromethylbiphenyl-2-carbonyl)amino}phenyl)butyryloxy]benzoic acid thiophen-2-ylmethyl ester] | < 10 |
| CN(C)C(=O)c1cc(CCCC(=O)Oc2ccc(C(=O)OCCN3CCCC3=O)cc2)ccc1NC(=O)c1ccccc1-c1ccc(C(F)(F)F)cc1 [Compound 1-91, 4-[4-(3-dimethylcarbamoyl-4-{(4′-trifluoromethylbiphenyl-2-carbonyl)amino}phenyl)butyryloxy]benzoic acid 2-(2-oxopyrrolidin-1-yl)ethyl ester] | < 10 |
| Cc1cccc(COC(=O)c2ccc(OC(=O)CCCc3ccc(NC(=O)c4ccccc4-c4ccc(C(F)(F)F)cc4)c(C(=O)N(C)C)c3)cc2)n1 [Compound 1-101, 4-[4-(3-dimethylcarbamoyl-4-{(4′-trifluoromethylbiphenyl-2-carbonyl)amino}phenyl)butyryloxy]benzoic acid 6-methylpyridin-2-ylmethyl ester] | < 10 |
| COC(=O)c1ccc(OC(=O)CCCc2ccc(NC(=O)c3ccccc3-c3ccc(C(F)(F)F)cc3)c(C(=O)N(C)C)c2)cc1C(F)(F)F [Compound 1-21, 4-(4-{3-dimethylcarbamoyl-4-[(4′-trifluoromethylbiphenyl-2-carbonyl)amino]phenyl}butyryloxy)-2-trifluoromethylbenzoic acid methyl ester] | 10 to 100 |
| COc1cccc(COC(=O)c2ccc(OC(=O)CCCc3ccc(NC(=O)c4ccccc4-c4ccc(C(F)(F)F)cc4)c(C(=O)N(C)C)c3)cc2)c1 [Compound 1-97, 4-[4-(3-dimethylcarbamoyl-4-{(4′-trifluoromethylbiphenyl-2-carbonyl)amino}phenyl)butyryloxy]benzoic acid 3-methoxybenzyl ester] | < 10 |
| CN(C)C(=O)c1cc(CCCC(=O)Oc2ccc(-c3nnn(CC(=O)OCc4ccccc4)n3)cc2)ccc1NC(=O)c1ccccc1-c1ccc(C(F)(F)F)cc1 [Compound 1-104, 4-(3-dimethylcarbamoyl-4-{(4′-trifluoromethylbiphenyl-2-carbonyl)amino}phenyl)butyric acid 4-(2-benzyloxycarbonylmethyl-2H-tetrazol-5-yl)phenyl ester] | < 10 |
| CN(C)C(=O)c1cc(CCCC(=O)Oc2ccc(C(=O)OCc3ccncc3)cc2)ccc1NC(=O)c1ccccc1-c1ccc(C(F)(F)F)cc1 [Compound 1-84, 4-[4-(3-dimethylcarbamoyl-4-{(4′-trifluoremethylbiphenyl-2-carbonyl)amino}phenyl)butyryloxy]benzoic acid pyridin-4-ylmethyl ester] | < 10 |
| COC(=O)c1ccc(OC(=O)CCCc2ccc(NC(=O)c3ccccc3-c3ccc(C(F)(F)F)cc3)c(C(=O)N3CCOCC3)c2)cc1 [Compound 1-26, 4-(4-{3-(morpholine-4-carbonyl)-4-[(4′-trifluoromethylbiphenyl-2-carbonyl)amino]phenyl}butyryloxy)benzoic acid methyl ester] | 10 to 100 |

The remaining lines, values ahead:

| IC50 [nM] | Structure (SMILES) |
| --- | --- |
| < 10 | COC(=O)c1ccc(OC(=O)CCCc2ccc(NC(=O)c3ccccc3-c3ccc(C(F)(F)F)cc3)c(C(=O)N(C)C)c2)c(OC)c1 [Compound 1-12, 4-(4-{3-dimethylcarbamoyl-4-[(4′-trifluoromethylbiphenyl-2-carbonyl)amino]phenyl}butyryloxy)-3-methoxybenzoic acid methyl ester] |
| < 10 | COC(=O)c1ccc(-c2nc(C)ccc2C(=O)Nc2ccc(CCCC(=O)Oc3c(C)cc(C(=O)OC)cc3C(=O)OC)cc2C(=O)N(C)C)cc1 [Compound 4-2, 4-[4-(3-dimethylcarbamoyl-4-{[2-(4-methoxycarbonylphenyl)-6-methylpyridine-3-carbonyl]amino}phenyl)butyryloxy]-5-methylisophthalic acid dimethyl ester] |
| < 10 | COC(=O)c1ccc(OC(=O)CCCc2ccc(NC(=O)c3ccccc3-c3ccc(C(F)(F)F)cc3)c(C(=O)N(C)C)c2)c(Cl)c1 [Compound 1-11, 3-chloro-4-(4-{3-dimethylcarbamoyl-4-[(4′-trifluoromethylbiphenyl-2-carbonyl)amino]phenyl}butyryloxy)benzoic acid methyl ester] |
| < 10 | COC(=O)c1cc(C)c(OC(=O)CCCc2ccc(NC(=O)c3ccc(C)nc3-c3ccc(C(F)(F)F)cc3)c(C(=O)N(C)C)c2)c(C)c1 [Compound 1-65, 4-[4-(3-dimethylcarbamoyl-4-{[6-methyl-2-(4-trifluoromethylphenyl)pyridine-3-carbonyl]amino}phenyl)butyryloxy]-3,5-dimethylbenzoic acid methyl ester] |
| < 10 | CCc1cc(C(=O)OC)ccc1OC(=O)CCCc1ccc(NC(=O)c2ccccc2-c2ccc(C(F)(F)F)cc2)c(C(=O)N(C)C)c1 [Compound 1-67, 4-[4-(3-dimethylcarbamoyl-4-{(4′-trifluoromethylbiphenyl-2-carbonyl)amino}phenyl)butyryloxy]-3-ethylbenzoic acid methyl ester] |
| < 10 | Cc1cccc(COC(=O)c2ccc(OC(=O)CCCc3ccc(NC(=O)c4ccc(C)nc4-c4ccc(C(F)(F)F)cc4)c(C(=O)N(C)C)c3)cc2)n1 [Compound 1-100, 4-[4-(3-dimethylcarbamoyl-4-{[6-methyl-2-(4-trifluoromethylphenyl)pyridine-3-carbonyl]amino}phenyl)butyryloxy]benzoic acid 6-methylpyridin-2-ylmethyl ester] |
| < 10 | CCOC(=O)c1ccc(OC(=O)CCCc2ccc(NC(=O)c3ccc(C)nc3-c3ccc(C(F)(F)F)cc3)c(C(=O)N(C)C)c2)cc1 [Compound 1-71, 4-[4-(3-dimethylcarbamoyl-4-{[6-methyl-2-(4-trifluoromethylphenyl)pyridine-3-carbonyl]amino}phenyl)butyryloxy]benzoic acid ethyl ester] |
| 10 to 100 | COC(=O)c1ccc(OC(=O)CCCc2ccc(NC(=O)c3ccncc3-c3ccc(C(F)(F)F)cc3)c(C(=O)N(C)C)c2)cc1 [Compound 1-30, 4-[4-(3-dimethylcarbamoyl-4-{[3-(4-trifluoromethylphenyl)pyridine-4-carbonyl]amino}phenyl)butyryloxy]benzoic acid methyl ester] |
| < 10 | CCOc1cc(C(=O)OC)cc(Cl)c1OC(=O)CCCc1ccc(NC(=O)c2ccc(C)nc2-c2ccc(C(F)(F)F)cc2)c(C(=O)N(C)C)c1 [Compound 1-40, 3-chloro-4-[4-(3-dimethylcarbamoyl-4-{[6-methyl-2-(4-trifluoromethylphenyl)pyridine-3-carbonyl]amino}phenyl)butyryloxy]-5-ethoxybenzoic acid methyl ester] |
